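Five concentrations, 48 hours, 96-well plates. GI50 marks 50% less growth. TGI: concentration producing complete growth inhibition.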
How the values were obtained:
Experiment in all cases: growth of human tumour cells (NCI), 48 h
T-47D breast = test system: T-47D breast
SF-539 CNS = test system: SF-539 CNS
OVCAR-3 ovarian = test system: OVCAR-3 ovarian
HOP-62 NSCLC = test system: HOP-62 NSCLC
NCI/ADR-RES ovarian = test system: NCI/ADR-RES ovarian
MDA-MB-435 = test system: MDA-MB-435
IGROV1 ovarian = test system: IGROV1 ovarian
A498 renal = test system: A498 renal
SF-295 CNS = test system: SF-295 CNS
EKVX NSCLC = test system: EKVX NSCLC
NCI-H460 lung = test system: NCI-H460 lung
RPMI-8226 leukemia = test system: RPMI-8226 leukemia
M14 melanoma = test system: M14 melanoma
MOLT-4 leukemia = test system: MOLT-4 leukemia
K-562 leukemia = test system: K-562 leukemia
MCF7 breast = test system: MCF7 breast
PC-3 prostate = test system: PC-3 prostate
CCRF-CEM leukemia = test system: CCRF-CEM leukemia
HCT-116 colon = test system: HCT-116 colon
NCI-H23 lung = test system: NCI-H23 lung
MALME-3M melanoma = test system: MALME-3M melanoma
NCI-H226 lung = test system: NCI-H226 lung
U251 CNS = test system: U251 CNS
A549 NSCLC = test system: A549 NSCLC
NCI-H522 lung = test system: NCI-H522 lung
MDA-MB-231 breast = test system: MDA-MB-231 breast
CAKI-1 renal = test system: CAKI-1 renal
UO-31 renal = test system: UO-31 renal
SNB-19 CNS = test system: SNB-19 CNS
COLO 205 colon = test system: COLO 205 colon
SN12C renal = test system: SN12C renal
SK-MEL-28 melanoma = test system: SK-MEL-28 melanoma
786-0 renal = test system: 786-0 renal
ACHN renal = test system: ACHN renal
BT-549 breast = test system: BT-549 breast
OVCAR-4 ovarian = test system: OVCAR-4 ovarian
SW-620 colon = test system: SW-620 colon
SNB-75 CNS = test system: SNB-75 CNS
HCT-15 colon = test system: HCT-15 colon
LOX IMVI melanoma = test system: LOX IMVI melanoma
HS 578T breast = test system: HS 578T breast
TK-10 renal = test system: TK-10 renal
OVCAR-5 ovarian = test system: OVCAR-5 ovarian
RXF 393 renal = test system: RXF 393 renal
OVCAR-8 ovarian = test system: OVCAR-8 ovarian
SK-MEL-2 melanoma = test system: SK-MEL-2 melanoma
SR leukemia = test system: SR leukemia
DU-145 prostate = test system: DU-145 prostate
SK-OV-3 ovarian = test system: SK-OV-3 ovarian
HOP-92 NSCLC = test system: HOP-92 NSCLC
HT29 colon = test system: HT29 colon
UACC-257 melanoma = test system: UACC-257 melanoma
UACC-62 melanoma = test system: UACC-62 melanoma
SK-MEL-5 melanoma = test system: SK-MEL-5 melanoma
SF-268 CNS = test system: SF-268 CNS
HL-60(TB) leukemia = test system: HL-60(TB) leukemia
KM12 colon = test system: KM12 colon
HCC-2998 colon = test system: HCC-2998 colon

## CCOC(=O)c1c(NCC(=O)Nc2cccc([N+](=O)[O-])c2)sc2c1CCCC2
T-47D breast
  GI50: 0.728 µM
  TGI: 3.12 µM
SF-539 CNS
  GI50: 0.242 µM
  TGI: 0.644 µM
OVCAR-3 ovarian
  GI50: 0.289 µM
  TGI: 0.77 µM
HOP-62 NSCLC
  GI50: 0.416 µM
  TGI: 1.99 µM
NCI/ADR-RES ovarian
  GI50: 0.267 µM
  TGI: 0.762 µM
MDA-MB-435
  GI50: 0.328 µM
  TGI: 1.09 µM
IGROV1 ovarian
  GI50: 0.236 µM
  TGI: 0.738 µM
A498 renal
  GI50: 0.194 µM
  TGI: 0.392 µM
SF-295 CNS
  GI50: 0.31 µM
  TGI: 1.18 µM
EKVX NSCLC
  GI50: 0.718 µM
  TGI: 3.64 µM
NCI-H460 lung
  GI50: 0.265 µM
  TGI: 0.707 µM
RPMI-8226 leukemia
  GI50: 0.31 µM
  TGI: 1.06 µM
M14 melanoma
  GI50: 0.183 µM
  TGI: 0.361 µM
MOLT-4 leukemia
  GI50: 0.246 µM
  TGI: 4.16 µM
K-562 leukemia
  GI50: 0.278 µM
MCF7 breast
  GI50: 0.272 µM
  TGI: 0.974 µM
PC-3 prostate
  GI50: 0.25 µM
  TGI: 0.726 µM
CCRF-CEM leukemia
  GI50: 0.253 µM
HCT-116 colon
  GI50: 0.263 µM
  TGI: 0.805 µM
NCI-H23 lung
  GI50: 0.217 µM
  TGI: 0.722 µM
MALME-3M melanoma
  GI50: 0.181 µM
  TGI: 0.407 µM
NCI-H226 lung
  GI50: 0.194 µM
  TGI: 0.471 µM
U251 CNS
  GI50: 0.284 µM
  TGI: 0.979 µM
A549 NSCLC
  GI50: 0.301 µM
  TGI: 2.68 µM
NCI-H522 lung
  GI50: 0.226 µM
  TGI: 0.739 µM
MDA-MB-231 breast
  GI50: 0.28 µM
  TGI: 1.01 µM
CAKI-1 renal
  GI50: 0.251 µM
  TGI: 0.735 µM
UO-31 renal
  GI50: 0.198 µM
  TGI: 0.583 µM
SNB-19 CNS
  GI50: 0.306 µM
  TGI: 1.08 µM
COLO 205 colon
  GI50: 0.274 µM
  TGI: 0.774 µM
SN12C renal
  GI50: 0.256 µM
  TGI: 0.793 µM
SK-MEL-28 melanoma
  GI50: 0.235 µM
  TGI: 0.596 µM
786-0 renal
  GI50: 0.271 µM
  TGI: 0.84 µM
ACHN renal
  GI50: 0.281 µM
  TGI: 0.795 µM
BT-549 breast
  GI50: 0.211 µM
  TGI: 0.605 µM
OVCAR-4 ovarian
  GI50: 0.338 µM
  TGI: 3.73 µM
SW-620 colon
  GI50: 0.315 µM
  TGI: 1.21 µM
SNB-75 CNS
  GI50: 0.214 µM
  TGI: 1.69 µM
HCT-15 colon
  GI50: 0.265 µM
  TGI: 1.33 µM
LOX IMVI melanoma
  GI50: 0.195 µM
  TGI: 0.405 µM
HS 578T breast
  GI50: 0.264 µM
  TGI: 0.773 µM
TK-10 renal
  GI50: 0.256 µM
  TGI: 0.782 µM
OVCAR-5 ovarian
  GI50: 0.27 µM
  TGI: 0.779 µM
RXF 393 renal
  GI50: 0.182 µM
  TGI: 0.36 µM
OVCAR-8 ovarian
  GI50: 0.351 µM
  TGI: > 100 µM
SK-MEL-2 melanoma
  GI50: 0.436 µM
  TGI: 2.29 µM
SR leukemia
  GI50: 0.276 µM
DU-145 prostate
  GI50: 0.316 µM
  TGI: 1.36 µM
SK-OV-3 ovarian
  GI50: 0.294 µM
  TGI: 0.856 µM
HOP-92 NSCLC
  GI50: 0.209 µM
  TGI: 0.696 µM
HT29 colon
  GI50: 0.273 µM
  TGI: 1.06 µM
UACC-257 melanoma
  GI50: 0.401 µM
  TGI: 2.13 µM
UACC-62 melanoma
  GI50: 0.173 µM
  TGI: 0.38 µM
SK-MEL-5 melanoma
  GI50: 0.182 µM
  TGI: 0.354 µM
SF-268 CNS
  GI50: 0.354 µM
  TGI: 1.69 µM
HL-60(TB) leukemia
  GI50: 0.28 µM
  TGI: 4.2 µM
KM12 colon
  GI50: 0.315 µM
  TGI: 0.966 µM
HCC-2998 colon
  GI50: 0.207 µM
  TGI: 0.499 µM
